Measured values as given in patent US8987243B2, “11-(2-pyrrolidin-1-yl-ethoxy)-14,19-dioxa-5,7,26-triaza-tetracyclo[19.3.1.1(2,6).1(8,12)]heptacosa-maleate salt” (CTI Biopharma Corp., priority 2008, dated 2015).
Counter-ions that a name gives are not always drawn. Values belong to the molecule of their own block, whether it stands above or below them.

Assays:
Type in all cases: physicochemical
[1] = Thermal gravimetric analysis (TGA); conditions: for water lost in the first phase of the TGA: hydrochloride
Description: The samples of both hydrochloride (comparative) and maleate salts were subjected to thermal gravimetric analysis and differential scanning calorimetry under the following conditions. DSC data were collected on a TA Instruments Q2000 equipped with a 50 position auto-sampler. The instrument was calibrated for energy and temperature calibration using certified indium. Typically 0.5-3 mg of each sample, in a pin-holed aluminium pan, was heated at 10° C.·min^−1 from 25° C. to 270° C.
TGA data were collected on a TA Instruments Q500 TGA, equipped with a 16 position auto-sampler. The instrument was temperature calibrated using certified Alumel. Typically 5-30 mg of each sample was loaded onto a pre-tared platinum crucible and aluminium DSC pan, and was heated at 10° C.·min^−1 from ambient temperature to 300° C. A nitrogen purge at 60 ml·min^−1 was maintained over the sample. The instrument control software was Thermal Advantage v4.6.6 and the data were analysed using Universal Analysis v4.3A. Alternatively, TGA data were collected on a Mettler TGA/SDTA 851e equipped with a 34 position auto-sampler. The instrument was temperature calibrated using certified indium. Typically 5-30 mg of each sample was loaded onto a pre-weighed aluminium crucible and was heated at 10° C.·min^−1 from ambient temperature to 300° C. A nitrogen purge at 50 ml·min^−1 was maintained over the sample. The instrument control and data analysis software was STARe v9.01.

[2] = Gravimetric Vapour Sorption (GVS), with XRPD post GVS; conditions: for solid form / crystalline pattern by XRPD post GVS: compared with starting material
[3] = Stress tests: storage at elevated temperature and humidity, analysed by XRPD
Description: The group three material was stressed under conditions which might cause it to convert to group one material or, indeed, another hydrated or polymorphic form. Thus samples were stored at 40° C./75% RH and also at 60° C./96% RH and analysed at regular intervals by XRPD.
The stability of the maleate salt form A material was tested in harsher conditions, when the samples were kept for a week in the humidity chamber at 60° C. and 96% RH.
The samples of both hydrochloride (comparative) and maleate salts were subjected to X-ray diffraction to determine the characteristic X-ray diffraction pattern. The conditions used were as follows: X-Ray Powder Diffraction patterns were collected on a Siemens D5000 diffractometer using Cu Kα radiation (40 kV, 40 mA), θ-θ goniometer, divergence of V20 and receiving slits, a graphite secondary monochromator and a scintillation counter. The instrument is performance checked using a certified Corundum standard (NIST 1976).

[4] = Maturation studies in 27 solvents, solids analysed by XRPD; conditions: 4 h heat/cool cycles 50° C./r.t., 24 h
Description: In order to determine the propensity of polymorphism for the maleate salt the material was maturated in 27 different solvents. A small amount of solid was slurried with the corresponding solvent (see Table 4 below) and stored in the incubator and subjected to 4 h-heat/cool cycles at 50° C./r.t. for 24 h. The solvents were then removed under vacuum, and the remaining solids analysed by XRPD.

[5] = Variable temperature X-ray diffraction; conditions: variable temperature XRPD
Description: Samples run under non-ambient conditions were mounted on a silicon wafer with heat-conducting compound. The sample was then heated to the appropriate temperature at ca. 10° C.·min^−1 and subsequently held isothermally for ca 2 minutes before data collection was initiated. In order to probe the stability of the samples of the maleate salts variable temperature X-ray diffraction was carried out. Thus, the salts were scanned under X-ray diffraction conditions at a series of temperatures and the characteristic peaks determined.

Structure (SMILES): C1=CCOCc2cc(ccc2OCCN2CCCC2)Nc2nccc(n2)-c2cccc(c2)COC1.Cl [Batch HCl 2, 11-(2-pyrrolidin-1-yl-ethoxy)-14,19-dioxa-5,7,26-triaza-tetracyclo[19.3.1.1(2,6).1(8,12)]heptacosa-1(25),2(26),3,5,8,10,12(27),16,21,23-decaene hydrochloride]
water lost in the first phase of the TGA ([1]; TGA): 5.6%

Structure (SMILES): C1=CCOCc2cc(ccc2OCCN2CCCC2)Nc2nccc(n2)-c2cccc(c2)COC1.Cl [Batch HCl 1, 11-(2-pyrrolidin-1-yl-ethoxy)-14,19-dioxa-5,7,26-triaza-tetracyclo[19.3.1.1(2,6).1(8,12)]heptacosa-1(25),2(26),3,5,8,10,12(27),16,21,23-decaene hydrochloride]
two stage weight loss, total ([1]; TGA, up to 100° C.): 4.5%
mass regained on going to 40% RH ([2]; GVS, after dryness): 2%
adsorption of water in the initial adsorption cycle ([2]; GVS, at 90% RH): 5.5%
total gain of mass ([2]; GVS, whole experiment): 2%
water content after the gain ([2]; GVS, corresponds to a dihydrate): 6.5%
mass lost on going from 90% RH to dryness ([2]; GVS, hydrochloride): 5%

Structure (SMILES): C1=CCOCc2cc(ccc2OCCN2CCCC2)Nc2nccc(n2)-c2cccc(c2)COC1.Cl [Batch HCl 3, 11-(2-pyrrolidin-1-yl-ethoxy)-14,19-dioxa-5,7,26-triaza-tetracyclo[19.3.1.1(2,6).1(8,12)]heptacosa-1(25),2(26),3,5,8,10,12(27),16,21,23-decaene hydrochloride]
total weight lost in the TGA ([1]; TGA): 3.4%
another loss ([1]; TGA, at 165° C.): 1.97%
water lost in the first phase of the TGA ([1]; TGA): 1.5%

Results, then the molecule that gave them:

weight loss in the TGA ([1]; until degradation at around 240° C.): very little weight loss
mass gained on going from 40% RH to 90% RH (water absorption) ([2]; GVS): 1.6%
mass lost on going from 90% RH to dryness ([2]; GVS, hydrochloride): 2.4%
solid form / crystalline pattern by XRPD post GVS ([2]; hydrochloride): unchanged
solid form by XRPD after storage ([3]; 40° C./75% RH, 0 hrs): Group three.
solid form by XRPD after storage ([3]; 40° C./75% RH, 24 hrs): Group three.
solid form by XRPD after storage ([3]; 40° C./75% RH, 48 hrs): Group three.
solid form by XRPD after storage ([3]; 40° C./75% RH, 72 hrs): Group one.
solid form by XRPD after storage ([3]; 60° C./96% RH, 0 hrs): Group three.
solid form by XRPD after storage ([3]; 60° C./96% RH, 24 hrs): Group one.
Structure (SMILES): C1=CCOCc2cc(ccc2OCCN2CCCC2)Nc2nccc(n2)-c2cccc(c2)COC1.Cl [Batch HCl 6, 11-(2-pyrrolidin-1-yl-ethoxy)-14,19-dioxa-5,7,26-triaza-tetracyclo[19.3.1.1(2,6).1(8,12)]heptacosa-1(25),2(26),3,5,8,10,12(27),16,21,23-decaene hydrochloride]

Solid Form after maturation ([4]; 1,4-dioxane): Form A
Solid Form after maturation ([4]; 1-butanol): Form A
Solid Form after maturation ([4]; 1-pentanol): Form A
Solid Form after maturation ([4]; 1-propanol): Form A
Solid Form after maturation ([4]; 2-butanol): Form A
Solid Form after maturation ([4]; 2-methoxy ethanol): Form A
Solid Form after maturation ([4]; 3-methyl-1-butanol): Form A
solid forms identified after maturation, all cases ([4]; 27 different solvents): only one solid form
Solid Form after maturation ([4]; Acetonitrile): Form A
Solid Form after maturation ([4]; Cyclohexane): Form A
Solid Form after maturation ([4]; DMSO): Form A
Solid Form after maturation ([4]; Dicloromethane): Form A
Solid Form after maturation ([4]; Ethanol): Form A
Solid Form after maturation ([4]; Ethyl acetate): Form A
Solid Form after maturation ([4]; Heptane): Form A
Solid Form after maturation ([4]; IPA): Form A
Solid Form after maturation ([4]; Isobutyl acetate): Form A
Solid Form after maturation ([4]; Isopropyl acetate): Form A
Solid Form after maturation ([4]; Methyl isobutyl ketone): Form A
Solid Form after maturation ([4]; Methylethyl ketone): Form A
Solid Form after maturation ([4]; Nitromethane): Form A
Solid Form after maturation ([4]; Propyl acetate): Form A
Solid Form after maturation ([4]; TBME): Form A
Solid Form after maturation ([4]; Tetrahydrofuran): Form A
Solid Form after maturation ([4]; Toluene): Form A
Solid Form after maturation ([4]; Water): Form A
Solid Form after maturation ([4]; acetone): Form A
Solid Form after maturation ([4]; methanol): Form A
weight loss in the TGA ([1]; until the salt melts with decomposition at 200° C.): no weight loss
change of X-ray diffraction pattern with temperature [5]: no change
hygroscopicity ([2]; GVS): low hygroscopicity
weight taken up in water ([2]; GVS, between 0 and 90% RH): less than 0.6%
solid form / crystalline pattern by XRPD post GVS [2]: No changes
changes in the crystalline pattern after storage ([3]; a week in the humidity chamber at 60° C. and 96% RH): no changes
Structure (SMILES): C1=C/COCc2cc(ccc2OCCN2CCCC2)Nc2nccc(n2)-c2cccc(c2)COC/1 [maleate salt, 11-(2-pyrrolidin-1-yl-ethoxy)-14,19-dioxa-5,7,26-triaza-tetracyclo[19.3.1.1(2,6).1(8,12)]heptacosa-1(25),2(26),3,5,8,10,12(27),16,21,23-decaene]

mass lost ([1]; TGA, between ambient and 108° C.): 6.5%
mass gained on going from 40% RH to 90% RH (water absorption) ([2]; GVS): 1.6%
mass lost on going from 90% RH to dryness ([2]; GVS, hydrochloride): 2.8%
solid form / crystalline pattern by XRPD post GVS ([2]; hydrochloride): unchanged
Structure (SMILES): C1=CCOCc2cc(ccc2OCCN2CCCC2)Nc2nccc(n2)-c2cccc(c2)COC1.Cl [Batch HCl 4, 11-(2-pyrrolidin-1-yl-ethoxy)-14,19-dioxa-5,7,26-triaza-tetracyclo[19.3.1.1(2,6).1(8,12)]heptacosa-1(25),2(26),3,5,8,10,12(27),16,21,23-decaene hydrochloride]
